Experiments:
[1] = test system: HBV replication in HepAD38 cells; assay: Anti-HBV replication assay in HepAD38 cells (QPCR of extracellular HBV DNA); assay type: cell-based, HBV (genotype D, serotype ayw); conditions: Hepatitis B virus, 168 h, 7 days incubation, extracellular HBV DNA by QPCR, read-out: Anti-HBV EC50
In short: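 Steps: seed HepAD38 overnight without tetracycline; refresh medium and add 1 log10 serial dilutions ([…]); incubate 7 days at 37 °C; quantify supernatant HBV DNA by QPCR; derive EC50 from a 4-parameter dose-response fit.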

[2] = In vitro cytotoxicity assay (MTT cell viability) in HepG2 cells; assay type: cell-based, human; conditions: human
In short: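 Read-out: MTT formazan absorbance at 492 nm, expressed as % of vehicle signal; CC50 by 4-parameter non-linear regression. Parental HepG2, 20,000 cells/well, treated 7 days with compound from 30 μM down to 1.0 nM.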

| Structure (SMILES) | EC50 [1] | CC50 at 7 days [2] |
| --- | --- | --- |
| CC[C@@H](CO)NC(=O)C(=O)c1c(C)c(C(=O)Nc2cnc(F)c(C)c2)c(C)n1C [Example 186, (S)-N-(6-fluoro-5-methylpyridin-3-yl)-5-(2-((1-hydroxybutan-2-yl)amino)-2-oxoacetyl)-1,2,4-trimethyl-1H-pyrrole-3-carboxamide] | 50 to 499 nM | > 30 µM |
| CC(=O)N1CCC(NC(=O)C(=O)c2c(C)c(C(=O)Nc3ccc(F)c(C)c3)c(C)n2C)CC1 [Example 354, 5-(2-((1-acetylpiperidin-4-yl)amino)-2-oxoacetyl)-N-(4-fluoro-3-methylphenyl)-1,2,4-trimethyl-1H-pyrrole-3-carboxamide] | < 50 nM | > 30 µM |
| CC(C)(O)CNC(=O)C(=O)c1c(Cl)c(C(=O)Nc2ccc(F)c(F)c2)c2n1CCCC2 [Example 534, 2-chloro-N-(3,4-difluorophenyl)-3-(2-((2-hydroxy-2-methylpropyl)amino)-2-oxoacetyl)-5,6,7,8-tetrahydroindolizine--1 carboxamide] | 50 to 499 nM | 5 to 30 µM |
| Cc1cc(NC(=O)c2cc(C(=O)C(=O)N[C@H](C(N)=O)[C@@H](C)O)n3c2CCCC3)ccc1F [Example 401] | > 1000 nM | > 30 µM |
| Cc1cc(NC(=O)c2c(C)c(C(=O)C(=O)N[C@H](CO)C(C)(C)C)n(C)c2C)ccc1F [Example 67, (S)—N-(4-fluoro-3-methylphenyl)-5-(2-((1-hydroxy-3,3-dimethylbutan-2-yl)amino)-2-oxoacetyl)-1,2,4-trimethyl-1H-pyrrole-3-carboxamide] | < 50 nM | > 30 µM |
| Cc1cc(NC(=O)c2c(C)c(C(=O)C(=O)NC3CCC(F)(F)CC3)n(C)c2C)ccc1F [Example 250, 5-(2-((4,4-difluorocyclohexyl)amino)-2-oxoacetyl)-N-(4-fluoro-3-methylphenyl)-1,2,4-trimethyl-1H-pyrrole-3-carboxamide] | < 50 nM | 5 to 30 µM |
| Cc1cc(NC(=O)c2c(C)c(C(=O)C(=O)N[C@@H](C(=O)O)[C@H](C)O)n(C)c2C)ccc1F [Example 35, (2-(4-((4-fluoro-3-methylphenyl)carbamoyl)-1,3,5-trimethyl-1H-pyrrol-2-yl)-2-oxoacetyl)-D-threonine] | > 1000 nM | > 30 µM |
| Cc1cc(NC(=O)c2c(Cl)c(C(=O)C(=O)NC3(CO)CC(F)(F)C3)n(C)c2C)ccc1F [Example 366, 4-chloro-5-(2-((3,3-difluoro-1-(hydroxymethyl)cyclobutyl)amino)-2-oxoacetyl)-N-(4-fluoro-3-methylphenyl)-1,2-dimethyl-1H-pyrrole-3-carboxamide] | < 50 nM | > 30 µM |
| Cc1csc(NC(=O)C(=O)c2c(C)c(C(=O)Nc3ccc(F)c(F)c3)c(C)n2C)n1 [Example 315, N-(3,4-difluorophenyl)-1,2,4-trimethyl-5-(2-((4-methylthiazol-2-yl)amino)-2-oxoacetyl)-1H-pyrrole-3-carboxamide] | < 50 nM | > 30 µM |
| Cc1noc([C@H](C)NC(=O)C(=O)c2cc(C(=O)Nc3ccc(F)c(C)c3)c3n2CCCC3)n1 [Example 430, (S)-N-(4-fluoro-3-methylphenyl)-3-(2-((1-(3-methyl-1,2,4-oxadiazol-5-yl)ethyl)amino)-2-oxoacetyl)-5,6,7,8-tetrahydroindolizine-1-carboxamide] | 50 to 499 nM | > 30 µM |
| Cc1csc(NC(=O)C(=O)c2c(C)c(C(=O)Nc3cnc(F)c(C)c3)c(C)n2C)n1 [Example 342, N-(6-fluoro-5-methylpyridin-3-yl)-1,2,4-trimethyl-5-(2-((4-methylthiazol-2-yl)amino)-2-oxoacetyl)-1H-pyrrole-3-carboxamide] | 500 to 1000 nM | > 30 µM |
| Cc1cc(NC(=O)c2c(C)c(C(=O)C(=O)NC3(C(F)(F)F)CCC3)n(C)c2C)ccc1F [Example 236, N-(4-fluoro-3-methylphenyl)-1,2,4-trimethyl-5-(2-oxo-2-((1-(trifluoromethyl)cyclobutyl)amino)acetyl)-1H-pyrrole-3-carboxamide] | < 50 nM | 5 to 30 µM |
| Cc1noc([C@H](C)NC(=O)C(=O)c2c(Cl)c(C(=O)Nc3ccc(F)c(Cl)c3)c3n2CCCC3)n1 [Example 523, (S)-2-chloro-N-(3-chloro-4-fluorophenyl)-3-(2-((1-(3-methyl-1,2,4-oxadiazol-5-yl)ethyl)amino)-2-oxoacetyl)-5,6,7,8-tetrahydroindolizine-1-carboxamide] | 50 to 499 nM | 5 to 30 µM |
| Cc1cc(NC(=O)c2c(C)c(C(=O)C(=O)NC3(C(=O)N[C@]4(C)C[C@H](O)C4)CCOCC3)n(C)c2C)ccc1F [Example 683, N-(4-fluoro-3-methylphenyl)-5-(2-((4-(((1s,3s)-3-hydroxy-1-methylcyclobutyl)carbamoyl)tetrahydro-2H-pyran-4-yl)amino)-2-oxoacetyl)-1,2,4-trimethyl-1H-pyrrole-3-carboxamide] | < 50 nM | > 30 µM |
| Cc1c(C(=O)Nc2cc(F)c(F)c(F)c2)c(C)n(C)c1C(=O)C(=O)Nc1ccc(F)c(F)c1 [Example 322, 5-(2-((3,4-difluorophenyl)amino)-2-oxoacetyl)-1,2,4-trimethyl-N-(3,4,5-trifluorophenyl)-1H-pyrrole-3-carboxamide] | < 50 nM | 5 to 30 µM |
| Cc1cc(NC(=O)c2cc(C(=O)C(=O)N[C@@H](CO)[C@H](C)O)n3c2CCCC3)ccc1F [Example 417, 3-(2-(((2S,3S)-1,3-dihydroxybutan-2-yl)amino)-2-oxoacetyl)-N-(4-fluoro-3-methylphenyl)-5,6,7,8-tetrahydroindolizine-1-carboxamide] | 50 to 499 nM | > 30 µM |
| Cc1c(C(=O)Nc2ccc(F)nc2)c(C)n(C)c1C(=O)C(=O)NC(C)C(F)(F)F (centres unmarked) [Example 119, N-(6-fluoropyridin-3-yl)-1,2,4-trimethyl-5-(2-oxo-2-((1,1,1-trifluoropropan-2-yl)amino)acetyl)-1H-pyrrole-3-carboxamide] | < 50 nM | > 30 µM |
| Cc1cc(NC(=O)c2c(C)c(C(=O)C(=O)NC34CCC(O)(CC3)CC4)n(C)c2C)ccc1F [Example 263, N-(4-fluoro-3-methylphenyl)-5-(2-((4-hydroxybicyclo[2.2.2]octan-1-yl)amino)-2-oxoacetyl)-1,2,4-trimethyl-1H-pyrrole-3-carboxamide] | < 50 nM | > 30 µM |
| Cc1cc(NC(=O)c2c(C)c(C(=O)C(=O)N[C@H](C)C(C)(C)C)n(C)c2C)ccc1F [Example 63, (R)-5-(2-((3,3-dimethylbutan-2-yl)amino)-2-oxoacetyl)-N-(4-fluoro-3-methylphenyl)-1,2,4-trimethyl-1H-pyrrole-3-carboxamide] | < 50 nM | > 30 µM |
| Cc1c(C(=O)Nc2ccc(F)c(Cl)c2)c(C)n(C)c1C(=O)C(=O)Nc1ccc(F)c(F)c1 [Example 313] | < 50 nM | 5 to 30 µM |
| Cc1noc(C(C)NC(=O)C(=O)c2cc(C(=O)Nc3ccc(F)c(C)c3)c3n2CCCC3)n1 (centres unmarked) [Example 414, N-(4-fluoro-3-methylphenyl)-3-(2-((1-(3-cmethyl-1,2,4-oxadiazol-5-yl)ethyl)amino)-2-oxoacetyl)-5,6,7,8-tetrahydroindolizine-1-carboxamide] | 50 to 499 nM | > 30 µM |
| Cc1cc(NC(=O)c2c(C)c(C(=O)C(=O)N[C@@H]3CCCN(S(C)(=O)=O)C3)n(C)c2C)ccc1F [Example 640] | < 50 nM | 5 to 30 µM |
| Cc1cc(NC(=O)c2c(C)c(C(=O)C(=O)NC34CC5CC(CC3C5)C4)n(C)c2C)ccc1F [Example 18, N-(4-fluoro-3-methylphenyl)-5-(2-(((2R,3as,5S,6as)-hexahydro-2,5-methanopentalen-3a(1H)-yl)amino)-2-oxoacetyl)-1,2,4-trimethyl-1H-pyrrole-3-carboxamide] | < 50 nM | > 30 µM |
| Cc1cc(NC(=O)c2cc(C(=O)C(=O)NC(C)(C)C)n(C)c2)ccc1F [Example 1, 5-(2-(tert-butylamino)-2-oxocetyl)-N-(4-fluoro-3-methylphenyl)-1-methyl-1H-pyrrole-3-carboxamide] | < 50 nM | > 30 µM |
| Cc1cc(NC(=O)c2c(C)c(C(=O)C(=O)NC3CCC(F)(F)CC3)n(C)c2C)cnc1F [Example 343, 5-(2-((4,4-difluorocyclohexyl)amino)-2-oxoacetyl)-N-(6-fluoro-5-methylpyridin-3-yl)-1,2,4-trimethyl-1H-pyrrole-3-carboxamide] | 50 to 499 nM | > 30 µM |
| Cc1c(C(=O)Nc2cc(F)c(F)c(F)c2)c(C)n(C)c1C(=O)C(=O)Nc1ccc(F)nc1 [Example 321, 5-(2-((6-fluoropyridin-3-yl)amino)-2-oxoacetyl)-1,2,4-trimethyl-N-(3,4,5-trifluorophenyl)-1H-pyrrole-3-carboxamide] | < 50 nM | 5 to 30 µM |
| Cc1c(C(=O)Nc2ccc(F)c(Cl)c2)c(C)n(C)c1C(=O)C(=O)NC(C)(C)CN1CCOCC1 [Example 332, N-(3-chloro-4-fluorophenyl)-1,2,4-trimethyl-5-(2-((2-methyl-1-morpholinopropan-2-yl)amino)-2-oxoacetyl)-1H-pyrrole-3-carboxamide] | < 50 nM | > 30 µM |
| Cc1cc(NC(=O)c2c(C)c(C(=O)C(=O)NC3(C(F)(F)F)CC(O)C3)n(C)c2C)ccc1F (centres unmarked) [Example 288, N-(4-fluoro-3-methylphenyl)-5-(2-((3-hydroxy-1-(trifluoromethyl)cyclobutyl)amino)-2-oxoacetyl)-1,2,4-trimethyl-1H-pyrrole-3-carboxamide] | < 50 nM | > 30 µM |

Source: patent US20190375708A1 (VenatoRx Pharmaceuticals, Inc., priority 2018, published 2019)
